According to patent publication US20100324829A1, “METHOD OF SELECTING HLA-DP4 LIGANDS AND THE APPLICATIONS THEREOF” (priority 2001, published 2010):
Positions count from the first letter of the chain named.

Experiments:
[1] = biological target: T1, HLA-DP4 molecule DPA1*0103/DPB1*0402 (DP402) (Homo sapiens, UniProt P04440+P20036); test: biochemical; format: binding
T1 construct: purified from various human B lymphocyte lines transformed with the Epstein Barr virus (EBV), which are homozygotes for DP; endogenous in cells
T1 sequence (P20036 29-260): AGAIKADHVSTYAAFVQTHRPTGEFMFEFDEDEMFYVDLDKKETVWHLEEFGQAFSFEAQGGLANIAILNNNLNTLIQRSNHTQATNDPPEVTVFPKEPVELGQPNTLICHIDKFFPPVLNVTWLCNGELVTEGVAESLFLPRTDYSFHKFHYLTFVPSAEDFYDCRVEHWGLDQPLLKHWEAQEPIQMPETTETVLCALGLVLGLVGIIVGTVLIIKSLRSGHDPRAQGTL
T1 sequence (P04440 30-258 A65V/A84D/A85E): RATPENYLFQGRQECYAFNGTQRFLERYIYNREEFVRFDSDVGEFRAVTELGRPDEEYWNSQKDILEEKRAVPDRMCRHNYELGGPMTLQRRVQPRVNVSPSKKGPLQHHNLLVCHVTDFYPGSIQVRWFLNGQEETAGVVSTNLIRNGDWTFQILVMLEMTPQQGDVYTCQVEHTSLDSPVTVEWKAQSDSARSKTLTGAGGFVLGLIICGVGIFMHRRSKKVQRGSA

[2] = biological target: T2, HLA-DP4 molecule DPA1*0103/DPB1*0401 (DP401) (Homo sapiens, UniProt P04440+P20036); test: biochemical; format: binding
T2 construct: purified from various human B lymphocyte lines transformed with the Epstein Barr virus (EBV), which are homozygotes for DP; endogenous in cells
T2 sequence (P20036 29-260): T1 sequence (P20036 29-260)
T2 sequence (P04440 30-258): T1 sequence (P04440 30-258 A65V/A84D/A85E) with V36A, D55A, E56A

Molecule	Loss of binding to DP*0402 (ratio of the IC50 values for the mutant peptide and for the UNK1 peptide) [1]	Loss of binding to DP*0401 (ratio of the IC50 values for the mutant peptide and for the UNK1 peptide) [2]	IC50 ([2]; IC50 (nM) DP0401, Api m1 overlapping peptides, tracer bUNK 1-17 10 nM, pH 5, 24 h) [nM]
KYFAAYQFEPLAA [UNK T8Y]	2.4	4.1	–
KYFAKTQFEPLAA [UNK A7K]	1.2	2	–
KYFAATAFEPLAA [UNK Q9A]	0.6	0.8	–
KYFAATQFEALAA [UNK P12A]	0.9	1.2	–
KYFAATQLEPLAA [UNK F10L]	6.7	7.2	–
KYFAATQFKPLAA [UNK E11K]	0.7	1.3	–
KYFAATQYEPLAA [UNK F10Y]	3.4	2.4	–
KYKAATQFEPLAA [UNK F5K]	297	569	–
KYFAAKQFEPLAA [UNK T8K]	3.6	31	–
KYTAATQFEPLAA [UNK F5T]	126	234	–
KYFAAFQFEPLAA [UNK T8F]	1.7	2.7	–
KYFAATKFEPLAA [UNK Q9K]	0.9	1.6	–
KYFAATQFEPVAA [UNK L13V]	1.9	2.5	–
KYFAAEQFEPLAA [UNK T8E]	3.7	2.7	–
KYFAATQFEPAAA [UNK L13A]	2.3	3.1	–
KYFAATQFEPNAA [UNK L13N]	10	17	–
KYFAATQFEPKAA [UNK L13K]	70	81	–
KYFAATQFEPDAA [UNK L13D]	9	9.4	–
KAFAATQFEPLAA [UNK Y4A]	0.9	1.2	–
AYFAATQFEPLAA [UNK K3A]	1	0.9	–
KYFAATQFEPEAA [UNK L13E]	8	11	–
KYFAATQFEPLKA [UNK A13K]	1.4	1.7	–
KYFAATQFEPYAA [UNK L13Y]	15	2	–
KYFAADQFEPLAA [UNK T8D]	2.3	2	–

Molecule	Loss of binding to DP*0402 (ratio of the IC50 values for the mutant peptide and for the UNK1 peptide) [1]	Loss of binding to DP*0401 (ratio of the IC50 values for the mutant peptide and for the UNK1 peptide) [2]	IC50 ([2]; IC50 (nM) DP0401, Api m1 overlapping peptides, tracer bUNK 1-17 10 nM, pH 5, 24 h) [nM]
KYFAATQFEKLAA [UNK P12K]	1.4	1.8	–
CC[C@H](C)[C@H](NC(=O)[C@H](CC(C)C)NC(=O)[C@H](CC(N)=O)NC(=O)[C@H](Cc1ccccc1)NC(=O)[C@H](Cc1ccc(O)cc1)NC(=O)[C@H](CCSC)NC(=O)[C@H](CCCCN)NC(=O)CNC(=O)[C@@H](NC(=O)[C@H](Cc1ccccc1)NC(=O)[C@@H](N)Cc1ccc(O)cc1)C(C)C)C(=O)N[C@@H](CC(=O)O)C(=O)N[C@H](C(=O)N[C@@H](CCCCN)C(=O)N[C@@H](CS)C(=O)N[C@@H](Cc1ccc(O)cc1)C(=O)N[C@@H](CCCCN)C(=O)N[C@@H](CC(C)C)C(=O)O)[C@@H](C)O [81-98]	–	–	2250
KKFAATQFEPLAA [UNK Y4K]	1	1.2	–
KYFAATQTEPLAA [UNK F10T]	476	1171	–
KYFAANQFEPLAA [UNK T8N]	4.8	4.1	–
KYFAALQFEPLAA [UNK T8L]	2.6	1.9	–
KYFAASQFEPLAA [UNK T8S]	3.4	2.7	–
KYFAATQFEPFAA [UNK L13F]	4	1.7	–
KYFAATQNEPLAA [UNK F10N]	1809	2460	–
KYFAAAQFEPLAA [UNK T8A]	0.8	0.8	–
KYAAATQFEPLAA [UNK F5A]	5.7	41	–
KYFAATQAEPLAA [UNK F10A]	62	336	–
KYFKATQFEPLAA [UNK A6K]	1	1.6	–
KYFAATQFAPLAA [UNK E11A]	0.5	0.5	–
KYNAATQFEPLAA [UNK F5N]	76	398	–
KYFAATQKEPLAA [UNK F10K]	350	420	–
KYFAATQFEPRAA [UNK L13R]	43	64	–
KYFAARQFEPLAA [UNK T8R]	6.7	17	–
KYFAATQFEPLAK [UNK A15K]	1.4	1.7	–
KYYAATQFEPLAA [UNK F5Y]	3.9	3	–
KYEAATQFEPLAA [UNK F5E]	123	117	–
KYLAATQFEPLAA [UNK F5L]	6	3.6	–
KYFAATQEEPLAA [UNK F10E]	1190	1405	–
